Assay: in vitro
Conditions: human, hela cells, % viability

| SMILES | viability at 28.5 h, 10 µM | viability at 28.5 h, 10 µM (bulk resorufin, single well) |
| --- | --- | --- |
| O=[N+]([O-])c1ccccc1S(=O)(=O)N1CCN(S(=O)(=O)c2ccc3ccccc3c2)CC1 [CBK264296] | 107% | – |
| O=C(c1cccnc1)N1CCN(S(=O)(=O)c2ccc([N+](=O)[O-])cc2)CC1 [CBK264300] | 92.5% | – |
| Cc1ccc(C(=O)C(C)OC(=O)c2ccc(NC(=O)c3ccccc3)cc2)cc1 (stereo not drawn) [CBK264302] | 100% | – |
| COc1ccc(C2NCCc3c2[nH]c2ccccc32)cc1CSc1nc2ccccc2s1 (stereo not drawn) [CBK264303C] | 96.8% | – |
| O=C(CSc1ccc(Cl)cc1)OCC(=O)c1ccccc1 [CBK264306] | 106% | – |
| O=C(O)CCC(C(=O)O)N1C(=O)c2c(Cl)c(Cl)c(Cl)c(Cl)c2C1=O (stereo not drawn) [CBK264308] | 102% | – |
| O=[N+]([O-])c1ccc(S(=O)(=O)N2CCN(S(=O)(=O)c3ccc(Cl)cc3)CC2)cc1 [CBK264312] | 118% | – |
| CC(=O)Nc1ccc(S(=O)(=O)N2CCN(S(=O)(=O)c3ccccc3[N+](=O)[O-])CC2)cc1 [CBK264314] | 104% | – |
| N/C(Cc1ccc(Cl)cc1Cl)=N\OC(=O)c1cccc([N+](=O)[O-])c1 [CBK264317] | 91% | – |
| O=C(NCc1ccncc1)Nc1ccc([N+](=O)[O-])cc1 [CBK264319] | 110% | – |
| Cc1cc(OCC(=O)Nc2nc[nH]n2)ccc1Cl [CBK264321] | 117% | – |
| Cc1cc(OCC(=O)O/N=C(\N)Cc2ccc([N+](=O)[O-])cc2)ccc1Cl [CBK264322] | 98.2% | – |
| O=C(C1CCN(Cc2ccc(F)cc2)CC1)N1CCN(C/C=C/c2ccccc2)CC1 [CBK264325G] | 96.5% | – |
| C/C(=C\c1ccccc1)CN1CCC(C(=O)N2CCN(Cc3ccc4c(c3)OCO4)CC2)CC1 [CBK264327] | 94.1% | – |
| O=C(/C=C/c1ccccc1)Oc1cccc(NC(=O)C2CC(=O)N(c3ccccc3)C2)c1 (stereo not drawn) [CBK264330] | 109% | – |
| CC1=CC(c2ccc(Cl)cc2)n2nc(NC(=O)CCC(=O)O)nc2N1 (stereo not drawn) [CBK264331] | 100% | – |
| OC(CN1CCN(c2cccc(Cl)c2)CC1)Cn1c2ccccc2c2ccccc21 (stereo not drawn) [CBK264333] | 98.2% | – |
| O=C(O)CNS(=O)(=O)c1ccc2nc(O)c(O)nc2c1 [CBK264334] | 94.4% | – |
| COc1ccc(C(=O)NCCc2ccc(S(N)(=O)=O)cc2)cc1[N+](=O)[O-] [CBK264335] | 99.8% | – |
| Cc1ccc(NC(=S)NC(=O)Cc2ccccc2)c(O)c1 [CBK264337] | 106% | – |

| SMILES | viability at 28.5 h, 10 µM | viability at 28.5 h, 10 µM (bulk resorufin, single well) |
| --- | --- | --- |
| NS(=O)(=O)c1ccc(NC(=O)c2ccc3ccccc3c2)cc1 [CBK264338] | 112% | – |
| CC(C)(C)c1ccc(Oc2ccc(NC(=O)CCCC(=O)O)cc2)cc1 [CBK264339] | 103% | – |
| COC(=O)c1ccc(N2CCN(C)CC2)c([N+](=O)[O-])c1 [CBK264341] | 99.4% | – |
| O=C(NC(=S)Nc1ccc2oc(-c3ccncc3)nc2c1)c1cc(Br)ccc1Cl [CBK264343] | 87.8% | – |
| O=C(/C=C/c1ccco1)NC(=S)Nc1ccc(O)c(-c2nc3ccccc3s2)c1 [CBK264344] | 85.7% | – |
| O=C(CSc1nnc(-c2ccncc2)[nH]1)c1ccc(O)c(O)c1 [CBK264346] | 86.6% | – |
| CCC(C)c1ccc(NC(=O)CSc2nc3cccnc3[nH]2)cc1 (stereo not drawn) [CBK264349] | 86.9% | – |
| O=CN1CCN(S(=O)(=O)c2ccc3c(c2)Cc2cc(S(=O)(=O)N4CCN(C=O)CC4)ccc2-3)CC1 [CBK264351] | 98.8% | – |
| O=C(CSc1nnc(-c2ccncc2)[nH]1)c1ccc(O)cc1O [CBK264353] | 102% | – |
| NS(=O)(=O)c1ccc(CNC(=O)C(Sc2ccccc2)c2ccccc2)cc1 (stereo not drawn) [CBK264355] | 91.5% | – |
| Cn1c(SCC(=O)c2ccccc2)nnc1-c1ccc(NC(=O)c2ccccc2Cl)cc1 [CBK264357] | 95% | – |
| Cc1cccc(NC(=O)C2CC(=O)N=C(Nc3nc4ccccc4s3)N2)c1 (stereo not drawn) [CBK264362] | 108% | – |
| CN(CC(=O)OCC(=O)c1ccccc1)S(=O)(=O)c1ccc(Cl)cc1 [CBK264363] | 105% | – |
| CN(C)S(=O)(=O)NCc1ccc2c(c1)OCO2 [CBK264364] | 108% | – |
| Cc1ccc(C(=O)/C=C(\Nc2cccc(C(F)(F)F)c2)C(=O)O)cc1 [CBK264366] | 101% | – |
| CN1CCN(c2ccc(C=C3C(=O)NC(=S)NC3=O)o2)CC1 [CBK264367] | – | 98.6% |
| NS(=O)(=O)c1ccc(CCNS(=O)(=O)c2ccccc2[N+](=O)[O-])cc1 [CBK264369] | 111% | – |
| Cc1ccc2nc(SCc3cccc([N+](=O)[O-])c3)nc(C)c2c1 [CBK264370] | 106% | – |
| O=C(/C=C/c1ccco1)NC(=S)Nc1ccccc1[N+](=O)[O-] [CBK264375] | 117% | – |
| O=C(/C=C/c1cccc([N+](=O)[O-])c1)NC(=S)Nc1ccc(-c2nc3ccccc3[nH]2)cc1 [CBK264376] | 102% | – |

| SMILES | viability at 28.5 h, 10 µM | viability at 28.5 h, 10 µM (bulk resorufin, single well) |
| --- | --- | --- |
| CS(=O)(=O)N1CCN(CC(O)Cn2c3ccc(Cl)cc3c3cc(Cl)ccc32)CC1 (stereo not drawn) [CBK264381] | 94% | – |
| CN(C)S(=O)(=O)Nc1ccccc1C(N)=O [CBK264382] | 111% | – |
| Cc1ccc(C(=O)/C=C\Nc2ccc(S(=O)(=O)Nc3cc(C)nc(C)n3)cc2)cc1 [CBK264384] | 124% | – |
| CCc1ccc(O)c(NC(=S)NC(=O)c2cccc3c(Br)cccc23)c1 [CBK264385] | 111% | – |
| COc1ccc(C(=O)/C=C(\Nc2cccc(C(F)(F)F)c2)C(=O)O)cc1 [CBK264387] | 107% | – |
| O=C(CSc1nnc(-c2ccco2)[nH]1)c1ccc(O)cc1O [CBK264392] | 108% | – |
| COC(=O)C1CCN(S(=O)(=O)c2ccccc2[N+](=O)[O-])CC1 [CBK264393] | 115% | – |
| NS(=O)(=O)c1ccc(CCNC(=O)c2ccc(Cl)c([N+](=O)[O-])c2)cc1 [CBK264395] | 94.8% | – |
| CCOC(=O)c1ccc(NC(=O)C2CC(=O)NC(Nc3nc4ccccc4s3)=N2)cc1 (stereo not drawn) [CBK264396] | 100% | – |
| CC(CC(=O)O)CC(=O)NNc1ncc(Cl)cc1Cl (stereo not drawn) [CBK264398] | 102% | – |
| CC(C)(C)c1ccc(O)c(NC(=S)NC(=O)c2ccccc2I)c1 [CBK264399] | 114% | – |
| O=c1/c(=C/c2cccnc2)sc2n1CN(c1cccc([N+](=O)[O-])c1)CN=2 [CBK264401] | 76.9% | – |
| Cc1ccc(/C=C/C(=O)O)cc1S(=O)(=O)NCCO [CBK264404] | 93.2% | – |
| O=[N+]([O-])c1ccccc1/C=C\C=N\n1c(S)nnc1-c1ccc(Cl)cc1Cl [CBK264405] | 95% | – |
| Cc1ccc(/C=C/C(=O)O)cc1S(=O)(=O)NC1CCS(=O)(=O)C1 (stereo not drawn) [CBK264409] | 96.1% | – |
| COc1cccc(C(=O)Nc2ccc(O)c(C)c2)c1 [CBK264413] | 88.1% | – |
| O=S(=O)(NCCc1nc2ccccc2[nH]1)c1ccc(Cl)c(Cl)c1 [CBK264416] | 93.5% | – |
| O=[N+]([O-])c1ccc(N2CCN(S(=O)(=O)c3ccc4ccccc4c3)CC2)cc1NCc1ccco1 [CBK264417] | 108% | – |
| O=C(O)COc1ccccc1/C=N/n1c(S)nnc1-c1ccc(Cl)cc1Cl [CBK264418] | 89.5% | – |
| COc1ccc(-c2nnc(S)n2/N=C\c2ccc(C(=O)O)cc2)cc1 [CBK264419] | 92.4% | – |

Reference: publication PMC12040169 (PLOS Biology, 2025)
